Our source for the EC50 and Ki values is PMC10600239, “Selective MCL-1 inhibitor ABBV-467 is efficacious in tumor models but is associated with cardiac troponin increases in patients” (Communications Medicine, 2023).

The test system of one test is H929 cells. Kind of test: In vitro cell viability assay (CellTiter-Glo). In kind it is cell-based, human. The following applies: Homo sapiens. The method, then: (§1) All cell lines were grown and treated in RPMI 1640 or Dulbecco’s modified Eagle medium (Sigma, St. Louis, MO) supplemented with 10% fetal bovine serum (Gibco) or 10% human serum (Sigma) and maintained in a humidified incubator at 5% CO2 and 37 °C. DLD-1, MV4-11, NCI-H929 (all ATCC, Manassas, VA, USA) and AMO-1 (DSMZ, Braunschweig, Germany) cells were plated 4000 cells per well in 384-well tissue culture plates and treated with compounds of interest for 24 h at 37 °C, 5% CO2 humidified incubator. Each concentration was tested in duplicate at least 3 separate times. Adherent cells were allowed to adhere overnight prior to treatment. Alternatively, AMO-1 or NCI-H929 cells were treated with ABBV-467 for the indicated contact times (1–24 h) at 37 °C in a 5% CO2 humidified incubator and washed 3 times with compound-free media prior to incubation for the remainder of a 24-h treatment period. Cell viability was subsequently determined using CellTiter-Glo (Promega, Madison, WI, USA) according to the manufacturer’s instructions.
(§2) For in vitro viability assays, mean EC50 and EC90 values were determined from the resulting dose-response curves from at least 3 independent experiments, and depict the mean ± standard error of the mean.
(§3) Fig. 2 Apoptosis induced by ABBV-467 is mechanism based and induces cell death in MCL-1-dependent cell lines after short target engagement periods. H929 cells were treated with ABBV-467 in the presence or absence of the pan-caspase inhibitor z-VAD-fmk (50 µM) and the impact on caspase-3/7 activation (a), mitochondrial membrane potential (ΔΨm; b), and apoptosis (c) determined. Alternatively, BAK-deficient SKBR3 cells were treated with ABBV-467 for 24 h and the impact on cell viability compared with the parental cell line, determined by CellTiter-Glo. Inset depicts a western blot of BAK and BAX expression in SKBR3 cell variants using GAPDH as a loading control. Each of the 3 proteins were probed on separate blots (d). Data in (a–d) are presented as the mean ± standard error of the mean. H929 and AMO-1 cells were treated with ABBV-467 at the indicated concentrations and the impact on caspase-3/7 activation and viability (DRAQ7-positive) cells determined over time by Incucyte®. Data are presented as the mean ± standard deviation (e). H929 or AMO-1 cells were cultured in media containing 10% human serum and treated with ABBV-467 for the indicated contact times. Cells were subsequently washed 3 times with drug-free media and incubated in drug-free media for the remainder of the 24-h treatment period at 37 °C before cell viability was determined by CellTiter-Glo. Mean EC50 and EC90 values were determined from the resulting dose-response curves from at least 3 independent experiments, each assessed in quadruplicate, and depict the mean ± standard error of the mean. Presented ABBV-467 dose-response curves in H929 and AMO-1 cells were compiled from at least 3 independent experiments (f).
(In ATP-based viability assays light output follows the ATP content of the culture.)

In another test the target is T1, BCL-W (Homo sapiens, UniProt Q92843).
T1 sequence (Q92843 1-193): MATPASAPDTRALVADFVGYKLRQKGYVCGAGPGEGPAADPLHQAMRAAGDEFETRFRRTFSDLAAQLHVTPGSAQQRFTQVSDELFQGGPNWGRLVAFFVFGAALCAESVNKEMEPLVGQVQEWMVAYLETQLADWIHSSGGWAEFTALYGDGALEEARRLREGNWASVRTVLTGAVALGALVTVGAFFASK
In words: Time-resolved FRET binding assay. The following applies: for pKi: TR-FRET. The method, then:
(§4) Binding affinities for MCL-1, BCL-2, BCL-XL, BCL-W, and BCL2-A1 were determined using a time-resolved fluorescence resonance energy transfer (FRET) assay. Test compounds were serially diluted in DMSO starting at […] (20× starting concentration; 100% DMSO followed by a 1:10 dilution of the compound DMSO plate into assay buffer); 10 µL of the compound in 10% DMSO was then transferred into a 384-well plate (low-volume Corning #3673 assay plate). Glutathione S-transferase (GST)-tagged recombinant BCL-2, BCL-XL, MCL-1, BCL-W, or BCL2-A1 protein (1 nM each) were mixed with 100 nM Oregon Green™-labeled f-BAK peptide probe and 1 nM Tb-labeled anti-GST antibody were mixed. Then 10 µL of a 2× protein/probe/antibody mix was added to each well of increasing concentrations of test compound in assay buffer (20 mM potassium phosphate, pH 7.6, 50 mM NaCl, 1 mM ethylenediaminetetraacetic acid disodium salt dihydrate, 0.05% pluronic acid F-68, 1 mM DL-dithiothreitol) at room temperature (final concentrations listed in Supplementary Table S2). The samples were then mixed on a shaker for 1 min and incubated for an additional 1 h at room temperature. For each assay plate, a probe/antibody and protein/antibody/probe mixture were included as a negative and a positive control, respectively. Fluorescence was measured on the EnVision™ (Perkin Elmer) using a 340/35-nm excitation filter and 520/525- (F-Bak) and 495/510-nm (Tb-labeled anti-glutathione S-transferase [GST] antibody) emission filters. Dissociation constants were determined using Wang’s equation[35]. The time-resolved FRET assay can be performed in the presence of varying concentrations of human serum to determine apparent half-maximal inhibitory concentration after serum protein binding.

The target of the next test is T2, BCL2-A1 (Homo sapiens, UniProt Q16548).
T2 sequence (Q16548 1-175): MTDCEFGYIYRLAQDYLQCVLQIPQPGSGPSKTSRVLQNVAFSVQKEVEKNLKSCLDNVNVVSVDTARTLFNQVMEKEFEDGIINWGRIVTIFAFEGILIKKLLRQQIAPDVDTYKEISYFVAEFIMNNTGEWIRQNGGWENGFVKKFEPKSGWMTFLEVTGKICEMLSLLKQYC
In words: Time-resolved FRET binding assay. The following applies: for pKi: TR-FRET. As to the method: as §4
On the technique in general: TR-FRET usually uses a lanthanide donor and a delayed reading to cut background.

For the next test, the target named is BCL-2 (Homo sapiens, UniProt P10415). In words: Time-resolved FRET binding assay. As to conditions: for pKi: TR-FRET; for Ki: read-out: TR-FRET, Ki, nM BCL-2. The method, then:
as §4

For the next test, the target named is BCL-XL (Homo sapiens, UniProt Q07817). In words: Time-resolved FRET binding assay. The following applies: for pKi: TR-FRET; for Ki: read-out: TR-FRET, Ki, nM BCL-XL. The method, then: as §4
For a further test, the system named is DLD-1 cells. Kind of test: In vitro cell viability assay (CellTiter-Glo). It is filed as cell-based, human. As to the method:
as §1, §2

The next test deals with MV4-11 cells. Kind of test: In vitro cell viability assay (CellTiter-Glo). It is filed as cell-based, human. The following applies: Homo sapiens. The method, then:
as §1, §2

The test system of a further test is AMO-1 cells. In words: In vitro cell viability assay (CellTiter-Glo). It is filed as cell-based, human. The following applies: Homo sapiens. As to the method: as §1, §2, §3
For the next test, the target named is human MCL-1 (Homo sapiens, UniProt Q07820). Kind of test: Time-resolved FRET binding assay. The method, then: as §4, with “Test” for “Binding affinities for MCL-1, BCL-2, BCL-XL, BCL-W, and BCL2-A1 were determined using a time-resolved fluorescence resonance energy transfer (FRET) assay. Test”
The mark [1] stands for this setting: arithmetic mean, read-out: Arithmetic Mean Ki, BCL-2.
Where [2] appears, read: individual determinations, read-out: Individual Ki, BCL-2.
The mark [3] stands for this setting: arithmetic mean, read-out: Arithmetic Mean Ki, BCL-XL.
Setting [4] is: individual determinations, read-out: Individual Ki, BCL-XL.

pEC50, pKi: −log10 of the molar value. Several values for one entry are separate records, joined by “and”; a condition that tells them apart may be missing. Equal values may be shown once. Read-outs that look alike come from different tables or passages of the source.

human MCL-1, sequence (Q07820 whole entry): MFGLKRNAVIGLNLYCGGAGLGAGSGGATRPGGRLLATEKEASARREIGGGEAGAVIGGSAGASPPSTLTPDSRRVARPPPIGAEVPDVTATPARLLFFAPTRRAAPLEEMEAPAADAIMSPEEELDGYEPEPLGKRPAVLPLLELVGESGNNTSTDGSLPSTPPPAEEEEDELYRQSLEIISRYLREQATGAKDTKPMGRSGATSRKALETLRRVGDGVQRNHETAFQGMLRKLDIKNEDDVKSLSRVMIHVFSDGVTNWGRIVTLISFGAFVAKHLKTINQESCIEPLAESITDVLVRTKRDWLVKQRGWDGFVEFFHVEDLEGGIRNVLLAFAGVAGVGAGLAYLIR
BCL-2, sequence (P10415 whole entry): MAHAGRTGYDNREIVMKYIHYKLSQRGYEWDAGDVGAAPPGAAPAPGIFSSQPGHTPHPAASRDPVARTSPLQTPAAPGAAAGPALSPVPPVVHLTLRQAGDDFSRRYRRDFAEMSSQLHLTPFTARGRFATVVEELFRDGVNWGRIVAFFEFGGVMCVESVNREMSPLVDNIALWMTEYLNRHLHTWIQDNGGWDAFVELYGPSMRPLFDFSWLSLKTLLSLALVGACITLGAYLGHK
BCL-XL, sequence (Q07817 whole entry): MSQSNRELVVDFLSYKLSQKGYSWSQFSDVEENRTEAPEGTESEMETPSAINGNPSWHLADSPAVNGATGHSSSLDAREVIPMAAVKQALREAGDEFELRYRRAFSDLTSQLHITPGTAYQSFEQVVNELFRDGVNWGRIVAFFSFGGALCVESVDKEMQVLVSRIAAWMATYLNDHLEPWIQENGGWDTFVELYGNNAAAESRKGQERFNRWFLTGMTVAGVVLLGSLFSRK

With `COc1ccccc1-c1nccc(COc2ccccc2CC(Oc2ncnc3sc(-c4ccc(F)cc4)c(-c4ccc(OCCN5CCN(C)CC5)c(Cl)c4C)c23)C(=O)O)n1` (stereo not shown) [Compound 1, reference compound], the EC50 (as a rule, the midpoint of the concentration-response curve) with H929 cells (NCI-H929, 24 h, read-out: H929 EC50 (nM, 10% FBS), 10% FBS, 24 h continuous treatment) worked out at 4.75 nM; with H929 cells (NCI-H929, NCI-H929, arithmetic mean, read-out: Arithmetic Mean EC50 µM) it was 4.75 nM; in the test on DLD-1 cells (Homo sapiens, DLD-1, 24 h, read-out: DLD-1 EC50 (nM, 10% FBS), 10% FBS, 24 h continuous treatment), 4750 nM; in the test with MV4-11 cells (MV4-11, 24 h, read-out: MV4-11 EC50 (nM, 10% FBS), 10% FBS, 24 h continuous treatment) it was 10.9 nM; in the test on MV4-11 cells (MV4-11, MV4-11, arithmetic mean, read-out: Arithmetic Mean EC50 µM) it was 10.9 nM; in the test on AMO-1 cells (AMO1, 24 h, read-out: AMO-1 EC50 (nM, 10% FBS), 10% FBS, 24 h continuous treatment), 2.06 nM. Further, in the test on AMO-1 cells (AMO1, AMO-1, arithmetic mean, read-out: Arithmetic Mean EC50 µM), the EC50 stood at 2.06 nM. Further, the pKi (in general, the Ki on a negative log10 scale, so that one unit is a factor of ten) at BCL-W (arithmetic mean, read-out: Arithmetic Mean Ki, BCL-W) was less than 6.33; at BCL-W (individual determinations, read-out: Individual Ki, BCL-W), less than 6.33; at BCL2-A1 (arithmetic mean, read-out: Arithmetic Mean Ki, BCL2-A1) it was less than 6.33; at BCL2-A1 (individual determinations, read-out: Individual Ki, BCL2-A1), less than 6.33; on BCL-2 (setting [1]), 6.22; on BCL-2 (setting [2]) it was 6.50 and 6.42 and 6.02 and 6.13. Further, the pKi on BCL-XL (setting [3]) and on BCL-XL (setting [4]) was less than 6.18 each time. Moreover, the Ki – broadly, a measure of affinity in units of concentration, obtained from inhibition or displacement – at BCL-W (read-out: TR-FRET, Ki, nM BCL-W) was greater than 468 nM; at BCL2-A1 (read-out: TR-FRET, Ki, nM BCL2-A1), greater than 468 nM; on BCL-2, 599 nM; on BCL-XL, greater than 660 nM. In addition, in the test on DLD-1 cells (DLD-1, individual determinations, listed as MIK665, read-out: Individual EC50), the pEC50 (usually the EC50 on a negative log10 scale, so that one unit is a factor of ten) was < 6.00 and < 5.00 and 5.32 and 5.47 and 5.18 and 5.36 and 5.37 and 5.24 and 5.39.

For `COc1ccccc1-c1nccc(COc2ccc3cc2CC(C(=O)O)Oc2ncnc4sc(-c5ccc(F)cc5)c(c24)-c2ccc(c(Cl)c2C)N(CCN2CCN(C)CC2)C3)n1` (stereo not shown) [Compound 2], the pKi at BCL-2 (setting [1]) is less than 5.92; on BCL-2 (setting [2]), less than 5.92; at BCL-XL (setting [3]), less than 6.18; at BCL-XL (setting [4]), less than 6.18; on human MCL-1 (TR-FRET, individual determinations, read-out: Individual Ki, MCL1), 8.61 and 8.30 and 8.04. Further, the Ki on BCL-2 was greater than 1200 nM; at BCL-XL, greater than 660 nM; on human MCL-1 (read-out: TR-FRET, Ki, nM MCL-1) it was 5.54 nM.
